Results as given in publication PMC5248581 (PeerJ, 2017).
Residues, ends and D or L forms follow the SMILES beside them.

Legend:
[1] = molecular target: T1, recombinant human myc-B2R (Homo sapiens, UniProt P30411); assay: [3H]BK binding competition, human myc-B2R; conditions: for IC50: 3 nM [3H]BK, 0 °C, intact HEK 293a cells, peptidase inhibitors (captopril, PMSF), [95% C.L.]
T1 construct: expressed in transfected cells
T1 sequence (P30411 1-391): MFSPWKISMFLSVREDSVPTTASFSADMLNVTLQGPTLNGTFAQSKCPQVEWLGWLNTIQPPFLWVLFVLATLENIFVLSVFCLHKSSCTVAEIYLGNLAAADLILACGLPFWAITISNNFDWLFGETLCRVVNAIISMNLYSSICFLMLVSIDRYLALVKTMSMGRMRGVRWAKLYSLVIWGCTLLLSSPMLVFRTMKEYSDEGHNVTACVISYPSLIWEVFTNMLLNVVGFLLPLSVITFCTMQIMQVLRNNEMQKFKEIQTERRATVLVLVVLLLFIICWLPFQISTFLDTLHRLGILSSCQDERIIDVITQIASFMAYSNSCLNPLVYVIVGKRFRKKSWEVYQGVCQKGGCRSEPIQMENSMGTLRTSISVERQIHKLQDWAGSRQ
Procedure: (§1) The construction of myc-tagged B2R expression vectors containing the human and rat receptor sequence has been recently reported, as well as the derivation of HEK 293a cell lines that stably express each one of these constructions ([Charest-Morin et al., 2015]). The HEK 293a cell line was originally obtained from Sigma-Aldrich. Affinity of N-terminally extended kinins for the B2R was evaluated using a radioligand binding competition assay performed at 0 °C in the presence of peptidase inhibitors that included captopril and PMSF ([Houle et al., 2000]).
(§2) Results are presented as means ± s.e.m.

human BK B1 receptor = conditions: ref Charest-Morin & Marceau, 2016; cited from earlier work
Description: MRGPRX2 has been recently described as a promiscuous receptor for cationic polymers and drugs that produce direct mast cell degranulation ([McNeil et al., 2015]). […] The contractile effect of MK on the human umbilical vein and ...

[2] = molecular target: T2, human isolated umbilical vein (BK B2R; histamine H1R) (Homo sapiens, UniProt P30411); conditions: for EC50: read-out: Human umbilical vein EC50, contraction, cumulative, [95% C.L.]
T2 sequence (P30411 1-391): T1 sequence (P30411 1-391)
Description: The institutional research ethics board (CHU de Québec) approved the anonymous use of human umbilical cord segments obtained after elective cesarean section deliveries (file number: 2012-323). Informed written consent was obtained from mothers.
Results are presented as means ± s.e.m. Radioligand binding data were fitted by nonlinear regression to a one-site competition equation using a least-square method (Prism 5.0; GraphPad Software Inc., San Diego, CA, USA) and IC50 values calculated from this procedure. The same computer program was used to draw concentration-effect curves (least square fitting of sigmoidal dose–response equation with variable slope) and to derive contractile EC50 values. Data describing baseline values of heart rate and mean arterial blood pressure and hypotensive responses to peptides in anesthetized rats were assessed by using one-way analysis of variance (ANOVA) followed by the Dunnett’s test (repeated comparison with a common control). The effects of drugs on the hypotensive responses to each dose of MK were assessed by using ANOVA followed by the Dunnett’s test.

[3] = Plasma level after injection; set-up: species or system rat; conditions: after injection at the highest tested dose in vivo
rat recombinant myc-B2R = molecular target: T3, rat recombinant myc-B2R (Rattus norvegicus, UniProt P25023); assay: [3H]BK binding competition, rat myc-B2R; conditions: 3 nM [3H]BK, 0 °C, intact HEK 293a cells, peptidase inhibitors (captopril, PMSF); [95% C.L.]
T3 construct: expressed in transfected cells
T3 sequence (P25023 1-396): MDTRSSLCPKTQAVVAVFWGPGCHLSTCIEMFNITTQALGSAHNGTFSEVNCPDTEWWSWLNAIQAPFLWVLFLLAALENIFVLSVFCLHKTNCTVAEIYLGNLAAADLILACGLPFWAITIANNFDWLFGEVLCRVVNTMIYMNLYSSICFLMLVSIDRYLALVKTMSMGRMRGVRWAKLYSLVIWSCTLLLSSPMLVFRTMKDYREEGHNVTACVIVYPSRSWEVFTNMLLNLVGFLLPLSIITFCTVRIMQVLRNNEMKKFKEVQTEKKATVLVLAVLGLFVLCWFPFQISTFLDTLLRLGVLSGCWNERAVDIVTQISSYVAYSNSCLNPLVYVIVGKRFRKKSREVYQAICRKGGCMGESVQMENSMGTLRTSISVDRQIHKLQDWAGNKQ
Procedure: as §1, §2

[4] = LC-MS of MK incubated with human umbilical vein ring; assay type: in vitro ADME; conditions: MK (100 fmol analysed), 37 °C, 5 or 15 min
Procedure: Synthetic MK (1 µM) was submitted to digestion in 2 ml of sterile-filtered Krebs solution in the presence of a freshly prepared ring of human umbilical vein (wet weight 25–37 mg). The tubes containing these materials were incubated at 37 °C for 5 or 15 min; the tissues were then removed and five volumes of cold ethanol (10 ml) were added to each tube. The tubes were incubated for 1 h on ice, centrifuged at 10,000 g to remove precipitated proteins and the kinin-containing supernatants were collected (procedure previously validated, [Raymond et al., 1995]). The supernatants were then completely evaporated to dryness in a Speedvac system and reconstituted in a small volume of water. Peptides were desalted on stage tip (C18), vacuum dried and then resuspended into 0.1% formic acid. One hundred fmol of each sample (starting MK quantity) was analyzed by mass spectrometry.
Mass spectrometry: peptide samples were separated by online reversed-phase (RP) nanoscale capillary liquid chromatography (nanoLC) and analyzed by electrospray mass spectrometry (ES MS/MS). The experiments were performed with a Ekspert NanoLC425 (Eksigent) coupled to a 5600+ mass spectrometer (AB Sciex, Framingham, MA, USA) equipped with a nanoelectrospray ion source. Peptide separation took place on a picofrit column (Reprosil 3u, 120A C18, 15 cm × 0.075 mm internal diameter). Peptides were eluted with a linear gradient from 5–35% solvent B (acetonitrile, 0.1% formic acid) in 35 min, at 300 nL/min. Mass spectra were acquired using a data dependent acquisition mode using Analyst software version 1.7. […] Dynamic exclusion was set for a period of 3 s and a tolerance of 100 ppm
Database searching: MGF peak list files were created using Protein Pilot version 5.0 software (Sciex) utilizing the Paragon and Progroup algorithms. MGF sample files were then analyzed using Mascot (Matrix Science, London, UK; version 2.5.1).
Mascot was set up to search the MK sequence assuming that the digestion enzyme was non-specific. Mascot was searched with a fragment ion mass tolerance of 0.100 Da and a parent ion tolerance of 0.100 Da. Deamidation of asparagine and glutamine and oxidation of methionine were specified in Mascot as variable modifications. Scaffold (version Scaffold_4.7.1; Proteome Software Inc., Portland, OR, USA) was used to validate MS/MS based peptide and protein identifications.
Data processing: Peak View 1.2.0.1 (Sciex) was used to extract the specific precursor masses and calculate the area under the curve. Extracted ion chromatoram (XIC) were generated from the TOF MS using a peak width of 0.05.

[5] = molecular target: T2, human isolated umbilical vein (BK B2R; histamine H1R); conditions: ref Gera et al., 2011; Charest-Morin et al., 2014; cited from earlier work
Description: The isolated umbilical vein has a low intrinsic sensitivity to endothelium-dependent vasodilation owing to its >20 layers of B2R-expressing smooth muscle cells ([Koumbadinga et al., 2010]; [Jean et al., 2016b]).

Molecule	IC50 [1] [µM]	displacement of [3H]BK binding / affinity ([1]; human myc-B2R)	B1R affinity (human BK B1 receptor)	contractile effect [2]	EC50 [2] [µM]	plasma concentration upper limit [3] [nM]	IC50 (rat recombinant myc-B2R) [µM]	consumption of MK [4]	apparent potency in presence of specific peptidase inhibitors [5]
CC[C@H](C)[C@H](NC(=O)[C@H](CCCCN)NC(=O)[C@@H]1CCCN1C(=O)[C@H](CC(C)C)NC(=O)[C@@H](N)CC(=O)O)C(=O)N[C@@H](CC(N)=O)C(=O)N[C@@H](CCCNC(=N)N)C(=O)N[C@@H](CCCCN)C(=O)NCC(=O)N1CCC[C@H]1C(=O)N[C@@H](CCCNC(=N)N)C(=O)N1CCC[C@H]1C(=O)N1CCC[C@H]1C(=O)NCC(=O)N[C@@H](Cc1ccccc1)C(=O)N[C@@H](CO)C(=O)N1CCC[C@H]1C(=O)N[C@@H](Cc1ccccc1)C(=O)O [MK-des-Arg] (H-DLPKINRKGPRPPGFSPF-OH; N-terminus and C-terminus assumed)	> 10	did not significantly displace [^3H]BK binding	very low affinity	negligible effects	> 10	–	–	–	–
CC[C@H](C)[C@H](NC(=O)[C@H](CCCCN)NC(=O)[C@@H]1CCCN1C(=O)[C@H](CC(C)C)NC(=O)[C@@H](N)CC(=O)O)C(=O)N[C@@H](CC(N)=O)C(=O)N[C@@H](CCCNC(=N)N)C(=O)N[C@@H](CCCCN)C(=O)NCC(=O)N1CCC[C@H]1C(=O)N[C@@H](CCCNC(=N)N)C(=O)N1CCC[C@H]1C(=O)N1CCC[C@H]1C(=O)NCC(=O)N[C@@H](Cc1ccccc1)C(=O)N[C@@H](CO)C(=O)N1CCC[C@H]1C(=O)N[C@@H](Cc1ccccc1)C(=O)N[C@@H](CCCNC(=N)N)C(=O)O [MK, maximakinin] (H-DLPKINRKGPRPPGFSPFR-OH)	7.56	–	–	–	0.145	≤ 100	0.12	consumed during the reaction	–
Met-Lys-BK-Ser-Ser [BK prodrug prolonged at the C-terminus]	–	–	–	–	–	–	–	–	decreased apparent potency
